Measured values published in patent publication US7834248B2, “Plant seed comprising vernolic acid” (Commonwealth Scientific and Industrial Research Organisation, priority 1997, dated 2010).

Columns and labels:
[1] = tested on: C. alpina oleate Δ12-desaturase; test: Microsomal oleate Δ12-desaturase assay, effect of treatments; type: biochemical, Crepis alpina; details: for Enzyme Activity (% of control), C. alpina oleate Δ12-desaturase: microsomal membranes, control = minus NADPH plus NADH
Description: (§1) Preparations of membranes from Crepis alpina and Crepis palaestina were obtained as follows. Crepis alpina and Crepis palaestina plants were grown in green houses and seeds were harvested at the mid-stage of development (17-20 days after flowering). Cotyledons were squeezed out from their seed coats and homogenized with mortar and pestle in 0.1M phosphate buffer, pH 7.2 containing 0.33M sucrose, 4 mM NADH, 2 mM CoASH, 1 mg of bovine serum albumin/ml and 4,000 units of catalase/ml. The homogenate was centrifuged for 10 min at 18,000×g and the resulting supernatant centrifuged for 60 min at 150,000×g to obtain a microsome pellet.
(§2) […]. When NADPH was used as coreductant, the membranes were resuspended in homogenization buffer comprising NADPH in place of NADH.
(§3) Biochemical characterization of the microsomal linoleate Δ12-epoxygenase derived from Euphorbia lagascae and Crepis palaestina was carried out and data obtained were compared to the biochemical characteristics of oleate Δ12-desaturase and linoleate Δ12-acetylenase enzymes derived from microsomal preparations of Crepis alpina (Table 4).

[2] = biological target: T1, C. alpina linoleate Δ12-acetylenase (Crepis alpina, UniProt O81931); test: Microsomal linoleate Δ12-acetylenase assay, effect of treatments; type: biochemical
T1 construct: from tissue; host or cells: microsomes from cotyledons of developing Crepis alpina seeds
T1 sequence (O81931 whole entry, stated change not applied): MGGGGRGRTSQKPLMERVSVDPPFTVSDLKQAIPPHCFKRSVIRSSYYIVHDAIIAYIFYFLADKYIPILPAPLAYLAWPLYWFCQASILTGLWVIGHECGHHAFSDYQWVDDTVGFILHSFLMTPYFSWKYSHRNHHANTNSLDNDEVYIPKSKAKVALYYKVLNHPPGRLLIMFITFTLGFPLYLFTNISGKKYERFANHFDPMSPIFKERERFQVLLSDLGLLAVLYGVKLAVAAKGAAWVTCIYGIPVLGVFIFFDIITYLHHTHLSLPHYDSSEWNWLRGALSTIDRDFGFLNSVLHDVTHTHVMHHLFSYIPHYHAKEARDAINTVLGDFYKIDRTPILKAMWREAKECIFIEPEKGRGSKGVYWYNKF
Description: as §1, §2, §3

[3] = tested on: C. palaestina linoleate Δ12-epoxygenase; test: Microsomal linoleate Δ12-epoxygenase assay, effect of treatments; type: biochemical, Crepis palaestina; details: microsomal membranes; control = minus NADPH plus NADH
Description: as §1, §2, §3

[4] = tested on: developing linseed cotyledons; test: Incorporation of 14C-labelled oleic acid and vernolic acid into the lipids of developing linseed cotyledons
Description: 0.1 M phosphate buffer pH 7.2 for 90 or 270 min before extraction. An aliquot of the lipids in the chloroform phase was methylated and separated on silica gel TLC plates in n-hexane/diethylether/acetic acid (85:15:1). The rest of the lipids in the chloroform phase of each sample were applied on two separate silica gel TLC plates and the plates were developed in chloroform/methanol/acetic acid/water (85:15:10:3.5 by vol) for polar lipids separation and in n-hexane/diethylether/acetic acid (60:40:1.5) for neutral lipid separation. Lipid areas with migration corresponding to authentic standards were removed and radioactivity in each lipid were quantified by liquid scintillation counting.

[5] = tested on: E. lagascae linoleate Δ12-epoxygenase; test: Membrane linoleate Δ12-epoxygenase assay, effect of treatments; type: biochemical, Euphorbia lagascae; details: for Enzyme Activity (% of control), E. lagascae linoleate Δ12-epoxygenase: membranes, control = minus NADH plus NADPH
Description: Preparations of membranes from Euphorbia lagascae and assays of their epoxygenase activities were performed as described by Bafor et al. (1993) with incubations containing NADPH, unless otherwise indicated in Table 4. Lipid extraction, separation and methylation as well as GLC and radio-GLC separations were performed essentially as described by Kohn et al. (1994) and Bafor et al. (1993).
as §3

NC(=O)C1=CN([C@@H]2O[C@H](COP(=O)(O)OP(=O)(O)OC[C@H]3O[C@@H](n4cnc5c(N)ncnc54)[C@H](OP(=O)(O)O)[C@@H]3O)[C@@H](O)[C@H]2O)C=CC1 [NADPH]
Enzyme Activity (% of control), C. alpina oleate Δ12-desaturase [1]: 95 % of control | Enzyme Activity (% of control), C. alpina linoleate Δ12-acetylenase ([2]; microsomal membranes, control = minus NADPH plus NADH): 73 % of control | Enzyme Activity (% of control), C. palaestina linoleate Δ12-epoxygenase [3]: 94 % of control

CCCCCC1OC1CC=CCCCCCCCC(=O)O (centres unmarked) [[^14C]vernolic acid, 12,13-epoxy-9-octadecenoic acid]
Metabolism of the epoxy group by linseed cotyledons (in words) [4]: do not metabolize the epoxy group of vernolic acid to any great extent

[C-]#[O+] [Carbon monoxide]
Inhibition of oleate Δ12-desaturase (in words) ([1]; Crepis alpina microsomes): not by carbon monoxide | Enzyme Activity (% of control), C. alpina oleate Δ12-desaturase [1]: 85 % of control | Inhibition of linoleate Δ12-acetylenase (in words) ([2]; Crepis alpina microsomes): not by carbon monoxide | Enzyme Activity (% of control), C. palaestina linoleate Δ12-epoxygenase [3]: 88 % of control | Inhibition of linoleate Δ12-epoxygenase (in words) ([5]; Euphorbia lagascae membranes): is inhibited | Enzyme Activity (% of control), E. lagascae linoleate Δ12-epoxygenase [5]: 3 % of control

CCCCCCCC/C=C\CCCCCCCC(=O)O [[^14C]oleic acid, oleic acid]
Activity of chloroform phase residing in phosphatidylcholine ([4]; after 30 min): About 22% | Activity of chloroform phase residing in triacylglycerols ([4]; after 30 min): About 5% | Added radioactivity taken up by the cotyledons and recovered as lipophilic substances (chloroform phase) ([4]; after the 30 min pulse labeling, virtually unchanged during further 270 min): Somewhat more than half | Activity of chloroform phase residing in phosphatidylcholine ([4]; at 300 min of incubation): about 11% | Activity of chloroform phase residing in triacylglycerols ([4]; at 300 min of incubation): 18% | Activity contained in diacylglycerols ([4]; remained rather constant over the incubation periods): ~19%

NC(=O)C1=CN([C@@H]2O[C@H](COP(=O)(O)OP(=O)(O)OC[C@H]3O[C@@H](n4cnc5c(N)ncnc54)[C@H](O)[C@@H]3O)[C@@H](O)[C@H]2O)C=CC1 [NADH]
Enzyme Activity (% of control), E. lagascae linoleate Δ12-epoxygenase [5]: 11 % of control
